Laboratory results taken from patent US20250171400A1, “AZA-HETEROCYCLYL CARBOXAMIDE AND RELATED COMPOUNDS AND THEIR USE IN TREATING MEDICAL CONDITIONS” (X-BIOTIX THERAPEUTICS, INC., priority 2021, published 2025).
≈ marks a conversion by molar mass, not a printed value. Where two headings read alike, the source gives them in different places.

Key:
E. coli LpxC = E. coli LpxC (Escherichia coli (strain K12), UniProt P0A725); assay: in vitro substrate deacetylation assay for inhibition of LpxC (ADDA analysis); type: biochemical; conditions: 5 nM E. coli LpxC, 2.5 μM substrate, 1 hour at room temperature
Sequence of E. coli LpxC (P0A725 whole entry): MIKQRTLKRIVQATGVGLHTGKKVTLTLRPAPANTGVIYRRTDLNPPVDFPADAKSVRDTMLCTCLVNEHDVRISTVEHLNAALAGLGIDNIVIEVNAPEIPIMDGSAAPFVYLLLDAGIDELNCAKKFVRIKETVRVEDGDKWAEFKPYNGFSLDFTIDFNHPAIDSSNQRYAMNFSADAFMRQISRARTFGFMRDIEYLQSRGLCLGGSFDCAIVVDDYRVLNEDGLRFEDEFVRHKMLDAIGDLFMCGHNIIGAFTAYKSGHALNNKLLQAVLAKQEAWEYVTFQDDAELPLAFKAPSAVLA
Procedure: (§1) Exemplary compounds from the above Examples were tested for ability to inhibit LpxC activity using an in vitro substrate deacetylation assay with ADDA™ analysis. Assay procedures and results are described below.
Dilutions of test compound were pre-incubated with 5 nM P. aeruginosa or E. coli LpxC for 10 minutes at room temperature in 50 mM NaH2PO4, 500 mM sucrose, 0.2 mg/mL BSA, pH 7.2 and <1% DMSO. Reactions were initiated by the addition of 2× substrate (UDP-3-O—(R-3-hydroxydecanoyl)-N-acetylglucosamine, Carbosynth Ltd, UK, for P. aeruginosa LpxC and UDP-3-O—(R-3-hydroxymyristoyl)-N-acetylglucosamine, BOC Sciences, USA, for E. coli LpxC), in 50 mM NaH2PO4, 0.5 mg/mL BSA, pH 7.2, to a final concentration of 2.5 μM. Reactions proceeded for 1 hour at room temperature prior to quenching with and equal volume of 2% acetic acid.
For ADDA™ analysis, an aliquot of assay sample was withdrawn from each well of the 384-well plate and applied to a Hypercarb cartridge (Optimize Technologies, USA) under conditions designed to retain analytes of interest. Analytes were eluted using 1:1:2 acetone:acetonitrile:water containing 5 mM ammonium acetate then analysed by triple-quadrupole mass spectrometry. Mass spectrometry was carried out using electrospray ionization in negative ion mode. Daughter ion peaks representing detected substrate (P. aeruginosa: parent Q1 mass=775.8 amu, daughter Q3 mass=384.7 amu E. coli: parent Q1 mass=833.0 amu, daughter Q3 mass=385.0 amu, collision energy=analyte specific, dwell time=50 ms) were identified using a multiple-reaction monitoring protocol.
Total activity (0% inhibition) was obtained from reactions containing no compound, and 100% inhibition is defined as reactions in the presence of 1 μM CHIR-090 (N-[(1S,2R)-2-hydroxy-1-[(hydroxyamino)carbonyl]propyl]-4-[2-[4-(4-morpholinylmethyl)phenyl]ethynyl]-benzamide). For IC50 determinations, peak areas of the substrate and product were compared to compute the proportion of substrate reacted by the LpxC enzyme at each compound concentration. The fractional activity was converted to percentage inhibition and plotted against compound concentration in ActivityBase™ and fit using a four-parameter logistic using non-linear regression to yield the IC50 value.

[1] = system: wild-type P. aeruginosa PAO1; assay: broth microdilution minimum inhibition concentration assay; type: cell-based; conditions: Pseudomonas aeruginosa
Procedure: (§2) Exemplary compounds from the above Examples were tested to determine their minimum inhibitory concentration (MIC) for exemplary strains of Eschericia and Pseudomonas bacteria using broth microdilution methods. Assay procedures and results are described below.
(§3) Broth microdilution assays were conducted according to Clinical and Laboratory Standards Institute guidelines (CLSI, M07-A11: Clinical and Laboratory Standards Institute. Methods for Dilution Antimicrobial Susceptibility Tests for Bacteria that Grow Aerobically; Approved Standard—11th Edition. Wayne, PA: CLSI, 2018.). Briefly, a 0.5 McFarland standard suspension was made from bacterial isolates on non-selective, solid media. The inocula were adjusted to give a bacterial concentration of 1×10^6 CFU/mL. Serial doubling-dilutions of each compound were prepared in cation-adjusted Mueller-Hinton broth (Sigma-Aldrich) in 96-well microdilution plates. A 50 μL aliquot of the inoculum was added to each microdilution plate and, within 15 minutes, incubated at 37° C. in air for 16-20 h. […] The test was controlled by the determination of piperacillin MIC against both E. coli ATCC 25922 and P. aeruginosa ATCC 27853 and ensuring accordance with the ranges published in CLSI supplementary document M100 (CLSI, M100Ed29: Clinical and Laboratory Standards Institute. Performance Standards for Antimicrobial Susceptibility Testing, 29th Edition. Wayne, PA: CLSI, 2018.).
(§4) Multiple enterobacteriaceae strains were tested, including E. coli ATCC 25922 and K. pneumoniae ATCC 43816. WT E. coli BW25113 was tested with an isogenic mutant deficient in acrA mediated efflux by clean deletion. WT P. aeruginosa PAO1 was tested with an isogenic mutant deficient in MexA mediated efflux by clean deletion.
(§5) Experimental results are provided in Table 4, which provides MIC values for wild-type E. coli BW25113 (“E. coli WT MIC”), an isogenic mutant deficient in acrA mediated efflux by clean deletion (“E. coli KO MIC”), wild-type P. aeruginosa PAO1 (“P. aeruginosa WT MIC”), and an isogenic mutant deficient in MexA mediated efflux by clean deletion (“[…]”).

[2] = system: E. coli BW25113 isogenic mutant deficient in acrA mediated efflux; assay: as above; type: cell-based; conditions: Escherichia coli, BW25113, read-out: E. coli KO MIC
Procedure: as §2, §3, §4, §5

[3] = system: wild-type E. coli BW25113; assay: as above; type: cell-based; conditions: Escherichia coli; wild-type E. coli BW25113, 37° C. 16-20 h; read-out: E. coli WT MIC
Procedure: as §2, §3, §4, §5

[4] = system: P. aeruginosa PAO1 isogenic mutant deficient in MexA mediated efflux; assay: as above; type: cell-based; conditions: Pseudomonas aeruginosa, PAO1, read-out: P. aeruginosa KO MIC
Procedure: as §2, §3, §4, §5

P. aeruginosa LpxC = P. aeruginosa LpxC (Pseudomonas aeruginosa (strain ATCC 15692 / DSM 22644 / CIP 104116 / JCM 14847 / LMG 12228 / 1C / PRS 101 / PAO1), UniProt P47205); assay: biochemical; type: biochemical; conditions: 5 nM P. aeruginosa LpxC, 2.5 μM substrate, 1 hour at room temperature
Procedure: as §1
For ADDA™ analysis, an aliquot of assay sample was withdrawn from each well of the 384-well plate and applied to a Hypercarb cartridge (Optimize Technologies, USA) under conditions designed to retain analytes of interest. Analytes were eluted using 1:1:2 acetone:acetonitrile:water containing 5 mM ammonium acetate then analysed by triple-quadrupole mass spectrometry. Mass spectrometry was carried out using electrospray ionization in negative ion mode.
For IC50 determinations, peak areas of the substrate and product were compared to compute the proportion of substrate reacted by the LpxC enzyme at each compound concentration.

[5] = wild-type P. aeruginosa PAO1, 37° C. 16-20 h, read-out: P. aeruginosa WT MIC
[6] = PAO1, read-out: P. aeruginosa WT MIC

Compound	IC50 (E. coli LpxC) [µM]	MIC [1, 5] [µM]	MIC [2] [µM]	MIC [3] [µM]	MIC [4] [µM]	IC50 (P. aeruginosa LpxC) [µM]	MIC [1, 6] [µM]
CC(C)C(=O)N1C[C@H](NC(=O)[C@@H]2C[C@H](F)CN2)C[C@@H]1CNC(=O)c1ccc(C#Cc2ccc(CN3CCOCC3)cc2)cc1 [Example 5, (2S,4S)-4-Fluoro-N-((3R,5R)-1-isobutyryl-5-((4-((4-(morpholinomethyl)phenyl)ethynyl)benzamido)methyl)pyrrolidin-3-yl)pyrrolidine-2-carboxamide]	< 0.5	> 100	< 20	< 20	< 20	< 0.05	
O=C(NC[C@H]1C[C@@H](NC(=O)[C@@H]2C[C@H](F)CN2)CN1C(=O)C1CC1)c1ccc(C#Cc2ccc(CN3CCOCC3)cc2)cc1Cl [Example 6, (2S,4S)—N-((3R,5R)-5-((2-Chloro-4-((4-(morpholinomethyl)phenyl)ethynyl)benzamido)methyl)-1-(cyclopropanecarbonyl)pyrrolidin-3-yl)-4-fluoropyrrolidine-2-carboxamide]	< 0.5		< 20	< 20	< 20	0.05 to 0.1	> 100
Cc1cc(C#Cc2ccc(CN3CCOCC3)cc2)ccc1C(=O)NC[C@H]1C[C@@H](NC(=O)[C@@H]2C[C@H](F)CN2)CN1C(=O)C1CC1 [Example 7, (2S,4S)—N-((3R,5R)-1-(Cyclopropanecarbonyl)-5-((2-methyl-4-((4-(morpholinomethyl)phenyl)ethynyl)benzamido)methyl)pyrrolidin-3-yl)-4-fluoropyrrolidine-2-carboxamide]	< 0.5		< 20	< 20	< 20	0.05 to 0.1	> 100
O=C(NC[C@H]1C[C@@H](NC(=O)[C@@H]2C[C@H](F)CN2)CN1C(=O)C1CC1)c1ccc(C#Cc2ccc(CN3CCOCC3)cc2)c(F)c1 [Example 8, (2S,4S)—N-((3R,5R)-1-(cyclopropanecarbonyl)-5-((3-fluoro-4-((4-(morpholinomethyl)phenyl)ethynyl)benzamido)methyl)pyrrolidin-3-yl)-4-fluoropyrrolidine-2-carboxamide]	< 0.5	20 to 100 (≈ 12.4 to 62 µg/mL)	< 20	< 20	< 20	< 0.05	
CC(C)C(=O)N1C[C@H](NC(=O)[C@H]2NCC[C@@H]2O)C[C@@H]1C(=O)NCc1ccc(C#Cc2ccc(CN3CCOCC3)cc2)cc1 [Example 9AA]	0.5 to 2.5		> 100	> 100	20 to 100 (≈ 12 to 60.2 µg/mL)	< 0.05	> 100
CC(C)C(=O)N1C[C@H](NC(=O)[C@H]2NCC[C@@H]2O)C[C@@H]1C(=O)NCc1ccc(C#CC#CC2CC2)cc1 [Example 9AB]	0.5 to 2.5		20 to 100 (≈ 9.81 to 49.1 µg/mL)	> 100	20 to 100 (≈ 9.81 to 49.1 µg/mL)	< 0.05	> 100
CC(C)C(=O)N1C[C@H](NC(=O)[C@@H]2C[C@@H](C#N)CN2)C[C@@H]1C(=O)NCc1ccc(C#Cc2ccc(CN3CCOCC3)cc2)cc1 [Example 9AC, (2R,4R)-4-((2S,4R)-4-Cyanopyrrolidine-2-carboxamido)-1-isobutyryl-N-(4-((4-(morpholinomethyl)phenyl)ethynyl)benzyl)pyrrolidine-2-carboxamide]	0.5 to 2.5	> 100	> 100	> 100	> 100	< 0.05	
CC(C)C(=O)N1C[C@H](NC(=O)[C@@H]2C[C@H](C#N)CN2)C[C@@H]1C(=O)NCc1ccc(C#Cc2ccc(CN3CCOCC3)cc2)cc1 [Example 9AD, (2R,4R)-4-((2S,4S)-4-Cyanopyrrolidine-2-carboxamido)-1-isobutyryl-N-(4-((4-(morpholinomethyl)phenyl)ethynyl)benzyl)pyrrolidine-2-carboxamide]	< 0.5	> 100	20 to 100 (≈ 12.2 to 61.1 µg/mL)	> 100	< 20	< 0.05	
CC(C)C(=O)N1C[C@H](NC(=O)[C@@H]2C[C@H](C#N)CN2)C[C@@H]1C(=O)NCc1ccc(C#CC#CC2CC2)cc1 [Example 9AE]	0.5 to 2.5	> 100	> 100	> 100	20 to 100 (≈ 9.99 to 50 µg/mL)	< 0.05	
N[C@H]1C[C@H](C(=O)N2C[C@H](NC(=O)[C@@H]3C[C@H](F)CN3)C[C@@H]2C(=O)NCc2ccc(C#CC#CC3CC3)cc2)C1 [Example 9AF]	0.5 to 2.5		> 100	> 100	> 100	0.05 to 0.1	> 100
COC(=O)N1C[C@H](NC(=O)[C@@H]2C[C@H](F)CN2)C[C@@H]1C(=O)NCc1ccc(C#Cc2ccc(CN3CCOCC3)cc2)cc1 [Example 9AG]	< 0.5	> 100	< 20	20 to 100 (≈ 11.8 to 59.2 µg/mL)	< 20	< 0.05	
CN(C)C(=O)N1C[C@H](NC(=O)[C@@H]2C[C@H](F)CN2)C[C@@H]1C(=O)NCc1ccc(C#Cc2ccc(CN3CCOCC3)cc2)cc1 [Example 9AH]	0.5 to 2.5	> 100	20 to 100 (≈ 12.1 to 60.5 µg/mL)	> 100	< 20	< 0.05	
CC(C)C(=O)N1C[C@H](NC(=O)[C@@H]2C[C@H](F)CN2)C[C@@H]1C(=O)NCc1ccc(C#Cc2ccccc2)cc1 [Example 9A]			20 to 100 (≈ 10.1 to 50.5 µg/mL)	> 100	20 to 100 (≈ 10.1 to 50.5 µg/mL)		> 100
CC(C)C(=O)N1C[C@H](NC(=O)[C@@H]2C[C@@H](F)CN2)C[C@@H]1C(=O)NCc1ccc(C#Cc2ccccc2)cc1 [Example 9E]			> 100	> 100	> 100		> 100
CC(C)C(=O)N1C[C@H](NC(=O)[C@@H]2C[C@H](O)CN2)C[C@@H]1C(=O)NCc1ccc(C#CC#CC2CC2)cc1 [Example 9U]			> 100	> 100	20 to 100 (≈ 9.81 to 49.1 µg/mL)		> 100
CC(C)C(=O)N1C[C@H](NC(=O)[C@@H]2C[C@@H](O)CN2)C[C@@H]1C(=O)NCc1ccc(C#CC#CC2CC2)cc1 [Example 9Z]			20 to 100 (≈ 9.81 to 49.1 µg/mL)	> 100	20 to 100 (≈ 9.81 to 49.1 µg/mL)		> 100
